Measured values taken from patent publication US20250353835A1, “N-TETRAZOLYL ARYL UREA-BASED DERIVATIVES, PREPARATION METHOD THEREFOR, AND USE THEREOF” (Hangzhou Yirui Pharmaceutical Technology Co., Ltd, priority 2022, published 2025).

Assays:
human B1R = molecular target: T1, human B1R (Homo sapiens, UniProt P46663); assay: FLIPR calcium ion flux assay, inhibitory activity against human B1R; format: cell-based; settings: HEK293 cells stably expressing human B1R; agonist [Lys-des-Arg9]-Bradykinin 4.6 nM (EC80); FLIPR method
T1 construct: host or cells: HEK293
T1 sequence (P46663 1-353): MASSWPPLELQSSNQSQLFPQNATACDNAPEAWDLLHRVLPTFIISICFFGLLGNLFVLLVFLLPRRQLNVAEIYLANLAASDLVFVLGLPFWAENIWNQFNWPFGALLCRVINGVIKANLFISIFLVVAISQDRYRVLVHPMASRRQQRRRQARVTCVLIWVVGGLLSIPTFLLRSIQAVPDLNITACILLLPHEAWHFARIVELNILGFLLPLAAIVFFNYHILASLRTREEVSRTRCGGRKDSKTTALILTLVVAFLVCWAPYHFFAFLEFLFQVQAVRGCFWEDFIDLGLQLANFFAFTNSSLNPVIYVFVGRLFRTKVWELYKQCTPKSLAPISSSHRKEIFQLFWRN
Procedure, shortened: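 HEK293 cells stably expressing human B1R, loaded with Fluo-4 Direct plus probenecid; compounds 9-point 1:5 series from 30 μM, duplicate, preincubated 10 min. Stimulation with [Lys-des-Arg9]-bradykinin at 4.6 nM final (EC80); peak fluorescence at 538 nm gave IC50.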

[1] = Ocular irritation after eye drops: ophthalmic observation and free protoporphyrin (FEP) in eye rinsing solution (ELISA); format: in vivo, SD rats; settings: 2% eye drops (10 μl) twice a day for 7 days
Experimental: 2.1 Experimental aminals: SPF grade male SD rats, weighed 180-200 g, were used and adaptively fed for one week.
2.3 Experimental animal grouping: the animals were randomly divided into 3 groups (6 rats per group) of a negative control group (normal saline), a Compound 71 group and a Compound 8 group.
2.4 Administration method and sampling: 2% Compound (10 μl) dissolved in normal saline (after filtration) was dropped into the surface of each rat's eye with a pipette for 10 s. The eye drop was applied twice a day for a total of 7 days. Samples were taken at 1 and 16 hours after the second administration on Day 7 of administration to determine the ocular distribution concentration of the drug.
[…] The rinsing solution was frozen at −80° C. for subsequent detection of irritant inflammatory response on the surface of the bulbus oculi.
2.7.2 Result of measurement of secretion of porphyrin: it was further determined whether inflammation or bleeding in the eyes occurred after eye drops by ELISA essay of free protoporphyrin (FEP) in erythrocytes. As indicated by the results, the level of FEP in the sample of eye rinsing solution was at a low concentration level for the rats in both the test drug group and the negative control group. There was no significant difference (P>0.05).

[2] = system: rat model of diabetic retinopathy; assay: Rat model of diabetic retinopathy (STZ); format: in vivo, Wistar rats; settings: for retinal leukocyte stasis, Leukocyte count: Concanavalin A/FITC, 14 days after intravitreal injection, compounds 0.25%, dexamethasone 0.1%; for number of leukocyte stasis in the retina (fluorescent staining, FIG. 8; in words) / retinal vascular penetration in rats (fluorescent staining, FIG. 6; in words): intraocular injection, versus model group
Experimental: 3.1 Laboratory animals: SPF-grade male Wistar rats, weighed 180-220 g.
3.3 Animal modeling and grouping: After one week of adaptive feeding, 134 male Wistar rats (weighed 220-260 g) were administered 65 mg/kg of STZ by one-time intraperitoneal injection to prepare a rat model of type I diabetic. The rats were fasting but water was allowable overnight for 15 h. The formulated STZ solution was intraperitoneally injected according to body weight. After 1 h, the diet was resumed and blood glucose was measured at 72 h. The successfully modeled diabetic rats (120 rats) were selected for continued feeding, and randomly divided into the following 6 groups according to blood glucose (20 rats per group), plus a group of normal rats with no STZ injected as a negative control group.
3.4 Administration: The rats continued to be fed until blood glucose was measured once before administration. After blood glucose reached the standard, drugs were intravitreally injected, and indexs were subsequently tested after 14 days. Blood glucose was measured once before sampling.
3.5 Evans blue staining method (7 groups, 6 rats per group): Evans blue was intravenously injected. 2 hours later, normal saline was perfused into the left ventricle. The retina was taken to compare between the stained area and the unstained area to detect retinal vascular permeability.
3.6 Retinal leukocyte stasis detection method (7 groups, 6 rats per group): PBS was perfused into the left ventricle for 1 min to remove red blood cells and other substances. Concanavalin A (FITC (Sigma, C7642) was perfused (20 μg/ml in PBS, 5 mg/kg) to mark adherent leukocytes. 4% PFA was perfused for 4 min for fixation. 1% Albumin (Sigma, A6414) (in PBS) was perfused for 1 min, and then PBS was perfused for 2 min. The retina was taken for retinal wholemount. Thereafter, the stasis of leukocytes on the vascular endothelium was observed under a fluorescence microscope. […]

CCOc1ccc(-c2c(F)cc(NC(=O)N3CCC(C(C)(C)C)CC3)cc2-c2nn[nH]n2)cn1 [Compound 8, 4-(tert-butyl)-N-(4-(6-ethoxypyrid-3-yl)-3-fluoro-5-(2H-tetrazol-5-yl)phenyl)piperidine-1-carboxamide]
IC50 (human B1R): 14.9 nM
FEP expression level in eye rinsing solution, Left eye ([1]; 1 h): 1.53 ± 0.03 ng/mL
FEP expression level in eye rinsing solution, Right eye ([1]; 1 h): 1.45 ± 0.02 ng/mL
FEP expression level in eye rinsing solution, Left eye ([1]; 16 h): 1.57 ± 0.08 ng/mL
FEP expression level in eye rinsing solution, Right eye ([1]; 16 h): 1.57 ± 0.06 ng/mL
retinal leukocyte stasis, Leukocyte count [2]: 5.32 ± 1.38
number of leukocyte stasis in the retina (fluorescent staining, FIG. 8; in words) [2]: significantly reduced
retinal vascular penetration in rats (fluorescent staining, FIG. 6; in words) [2]: significantly reduced

CCOc1ccc(-c2ccc(NC(=O)N[C@H]3CC[C@H](C)CC3)cc2-c2nn[nH]n2)cn1 [Compound 71, 1-(4-(6-ethoxypyrid-3-yl)-3-(2H-tetrazol-5-yl)phenyl)-3-((trans)-4-methylcyclohexyl)urea]
IC50 (human B1R): 66.1 nM
FEP expression level in eye rinsing solution, Left eye ([1]; 1 h): 1.50 ± 0.02 ng/mL
FEP expression level in eye rinsing solution, Right eye ([1]; 1 h): 1.54 ± 0.08 ng/mL
FEP expression level in eye rinsing solution, Left eye ([1]; 16 h): 1.61 ± 0.06 ng/mL
FEP expression level in eye rinsing solution, Right eye ([1]; 16 h): 1.55 ± 0.09 ng/mL
retinal leukocyte stasis, Leukocyte count [2]: 5.22 ± 1.13
number of leukocyte stasis in the retina (fluorescent staining, FIG. 8; in words) [2]: significantly reduced
retinal vascular penetration in rats (fluorescent staining, FIG. 6; in words) [2]: significantly reduced
